From ChEMBL document CHEMBL1137641, “Influence of inoculum size on the selection of resistant mutants of Escherichia coli in relation to mutant prevention concentrations of marbofloxacin” (2007)
In brackets after ≈: the same amount, converted by molar mass.

Experiments:
Format in all cases: functional
[1] = system: Escherichia coli; assay: Bactericidal activity against marbofloxacin-resistant Escherichia coli ATCC 25922 assessed as final bacterial count using inoculum size of 10^7 CFU/mL inside the mutant selection window for 100% of time
[2] = system: Escherichia coli; assay: Bactericidal activity against marbofloxacin-resistant Escherichia coli ATCC 25922 assessed as area between the control curve and time kill curve using inoculum size of 10^9 CFU/mL inside the mutant selection window for 100% of time
[3] = system: Escherichia coli; assay: Bactericidal activity against marbofloxacin-susceptible Escherichia coli ATCC 25922 assessed as area between the control curve and time kill curve using inoculum size of 10^7 CFU/mL inside the mutant selection window for 25% of time
[4] = system: Escherichia coli; assay: Bactericidal activity against marbofloxacin-susceptible Escherichia coli ATCC 25922 assessed as final bacterial count using inoculum size of 10^5 CFU/mL inside the mutant selection window for 100% of time
[5] = system: Escherichia coli; assay: Bactericidal activity against marbofloxacin-susceptible Escherichia coli ATCC 25922 assessed as final bacterial count using inoculum size of 10^7 CFU/mL inside the mutant selection window for 0% of time
[6] = system: Escherichia coli; assay: Bactericidal activity against marbofloxacin-susceptible Escherichia coli ATCC 25922 assessed as area between the control curve and time kill curve using inoculum size of 10^5 CFU/mL inside the mutant selection window for 0% of time
[7] = system: Escherichia coli; assay: Bactericidal activity against marbofloxacin-susceptible Escherichia coli ATCC 25922 assessed as final bacterial count using inoculum size of 10^7 CFU/mL inside the mutant selection window for 100% of time
[8] = system: Escherichia coli; assay: Bactericidal activity against marbofloxacin-susceptible Escherichia coli ATCC 25922 assessed as area between the control curve and time kill curve using inoculum size of 10^9 CFU/mL inside the mutant selection window for 25% of time
[9] = system: Escherichia coli; assay: Bactericidal activity against marbofloxacin-susceptible Escherichia coli ATCC 25922 assessed as area between the control curve and time kill curve using inoculum size of 10^9 CFU/mL inside the mutant selection window for 0% of time
[10] = system: Escherichia coli; assay: Bactericidal activity against marbofloxacin-susceptible Escherichia coli ATCC 25922 assessed as area between the control curve and time kill curve using inoculum size of 10^5 CFU/mL inside the mutant selection window for 100% of time
[11] = system: Escherichia coli; assay: Bactericidal activity against marbofloxacin-susceptible Escherichia coli ATCC 25922 assessed as area between the control curve and time kill curve using inoculum size of 10^7 CFU/mL inside the mutant selection window for 0% of time
[12] = T>MIC in Escherichia coli ATCC 25922 at time with in mutant selection window of 25%
[13] = system: Escherichia coli; assay: Bactericidal activity against marbofloxacin-susceptible Escherichia coli ATCC 25922 assessed as final bacterial count using inoculum size of 10^9CFU/mL inside the mutant selection window for 25% of time
[14] = T>MIC in Escherichia coli ATCC 25922 at time with in mutant selection window of 0%
[15] = Effect on Escherichia coli ATCC 25922 assessed as time at which drug concentration above the mutant prevention concentration at time with in mutant selection window of 0%
[16] = system: Escherichia coli; assay: Antibacterial activity against Escherichia coli ATCC 25922 by microdilution method
[17] = system: Escherichia coli; assay: Bactericidal activity against marbofloxacin-resistant Escherichia coli ATCC 25922 assessed as final bacterial count using inoculum size of 10^5 CFU/mL inside the mutant selection window for 100% of time
[18] = system: Escherichia coli; assay: Bactericidal activity against marbofloxacin-resistant Escherichia coli ATCC 25922 assessed as final bacterial count using inoculum size of 10^9 CFU/mL inside the mutant selection window for 100% of time
[19] = Effect on Escherichia coli ATCC 25922 assessed as time at which drug concentration above the mutant prevention concentration at time with in mutant selection window of 100%
[20] = system: Escherichia coli; assay: Antibacterial activity against Escherichia coli ATCC 25922 assessed as mutant prevention concentration after 24 hrs by agar dilution method
[21] = system: Escherichia coli; assay: Bactericidal activity against marbofloxacin-resistant Escherichia coli ATCC 25922 assessed as area between the control curve and time kill curve using inoculum size of 10^7 CFU/mL inside the mutant selection window for 100% of time
[22] = system: Escherichia coli; assay: Bactericidal activity against marbofloxacin-susceptible Escherichia coli ATCC 25922 assessed as final bacterial count using inoculum size of 10^5 CFU/mL inside the mutant selection window for 0% of time
[23] = system: Escherichia coli; assay: Bactericidal activity against marbofloxacin-susceptible Escherichia coli ATCC 25922 assessed as final bacterial count using inoculum size of 10^9CFU/mL inside the mutant selection window for 0% of time
[24] = system: Escherichia coli; assay: Bactericidal activity against marbofloxacin-susceptible Escherichia coli ATCC 25922 assessed as final bacterial count using inoculum size of 10^7 CFU/mL inside the mutant selection window for 25% of time
[25] = system: Escherichia coli; assay: Bactericidal activity against marbofloxacin-susceptible Escherichia coli ATCC 25922 assessed as final bacterial count using inoculum size of 10^5 CFU/mL inside the mutant selection window for 25% of time
[26] = system: Escherichia coli; assay: Bactericidal activity against marbofloxacin-susceptible Escherichia coli ATCC 25922 assessed as area between the control curve and time kill curve using inoculum size of 10^7 CFU/mL inside the mutant selection window for 100% of time
[27] = system: Escherichia coli; assay: Bactericidal activity against marbofloxacin-susceptible Escherichia coli ATCC 25922 assessed as area between the control curve and time kill curve using inoculum size of 10^5 CFU/mL inside the mutant selection window for 25% of time
[28] = system: Escherichia coli; assay: Bactericidal activity against marbofloxacin-resistant Escherichia coli ATCC 25922 assessed as area between the control curve and time kill curve using inoculum size of 10^5 CFU/mL inside the mutant selection window for 100% of time
[29] = T>MIC in Escherichia coli ATCC 25922 at time with in mutant selection window of 100%
[30] = Effect on Escherichia coli ATCC 25922 assessed as time at which drug concentration above the mutant prevention concentration at time with in mutant selection window of 25%

CN1CCN(c2c(F)cc3c(=O)c(C(=O)O)cn4c3c2OCN4C)CC1 [MARBOFLOXACIN]
CFU [1]: 6 ×10⁸ /ml | ABBC [2]: 44 log10CFU/ml/hr | ABBC [3]: 56 log10CFU/ml/hr | CFU [4]: 2 ×10⁶ /ml | CFU [5]: 2 ×10⁴ /ml | ABBC [6]: 54 log10CFU/ml/hr | CFU [7]: 7 ×10⁴ /ml | ABBC [8]: 53 log10CFU/ml/hr | ABBC [9]: 51 log10CFU/ml/hr | ABBC [10]: 53 log10CFU/ml/hr | ABBC [11]: 57 log10CFU/ml/hr | T>MIC [12]: 100% | CFU [13]: 3 ×10⁴ /ml | T>MIC [14]: 100% | Activity [15]: 100% | MIC [16]: 8 ng/mL (≈ 0.0221 µM) | CFU [17]: 1 ×10⁸ /ml | CFU [18]: 5 ×10⁷ /ml | Activity [19]: 0% | Activity [20]: 0.256 µg/mL | ABBC [21]: 56 log10CFU/ml/hr | CFU [22]: 7 ×10³ /ml | CFU [23]: 1 ×10⁴ /ml | CFU [24]: 8 ×10⁴ /ml | CFU [25]: 6 ×10⁴ /ml | ABBC [26]: 60 log10CFU/ml/hr | ABBC [27]: 54 log10CFU/ml/hr | ABBC [28]: 51 log10CFU/ml/hr | T>MIC [29]: 100% | Activity [30]: 75%
